Data reported in article PMC6364417, “Kinase inhibitor library screening identifies synergistic drug combinations effective in sensitive and resistant melanoma cells” (Journal of Experimental & Clinical Cancer Research : CR, 2019).

Experiments:
Assay in all cases: Kinase inhibitor library screening, PrestoBlue cell viability, 1 or 10 μM, 72 h
[1] = test system: IGR37 cells (parental); conditions: IGR37 Parental, 72 h
Experimental: (§1) After 72 h of treatment, cell viability was assessed using the PrestoBlue Cell Viability Reagent (ThermoFisher Scientific). Measurements were performed with the CLARIOstar Monochromator microplate reader (BMG Labtech).
(§2) Kinase inhibitor library screening. […] Each cell line was treated in its sensitive form (parental), and also as 2 resistant derivatives, which were made resistant to either Vemurafenib (XP) or Dabrafenib (GP). Drugs were added at 2 different concentrations, 1 and 10 μM, for 72 h and cell viability was assessed using the PrestoBlue Cell Viability assay. Results are depicted as % viability compared to untreated cells. Each cell line was analyzed at least in duplicate. […] (XLSX 95 kb)

[2] = test system: A375-GP cells (Dabrafenib-resistant); conditions: A375 GP, 72 h
Experimental: as §1, §2

[3] = test system: A375 cells (parental); conditions: A375 Parental, 72 h
Experimental: as §1, §2

[4] = test system: 501Mel cells (parental); conditions: 501Mel Parental, 72 h
Experimental: as §1, §2

[5] = test system: 501Mel-GP cells (Dabrafenib-resistant); conditions: 501Mel GP, 72 h
Experimental: as §1, §2

[6] = test system: 501Mel-XP cells (Vemurafenib-resistant); conditions: 501Mel XP, 72 h
Experimental: as §1, §2

[7] = test system: A375-XP cells (Vemurafenib-resistant); conditions: A375 XP, 72 h
Experimental: as §1, §2

[8] = test system: IGR37-GP cells (Dabrafenib-resistant); conditions: IGR37 GP, 72 h
Experimental: as §1, §2

[9] = test system: IGR37-XP cells (Vemurafenib-resistant); conditions: IGR37 XP, 72 h
Experimental: as §1, §2

SMILES: CN(C)Cc1cccc(N/C(=C2\C(=O)Nc3cc(C(=O)N(C)C)ccc32)c2ccccc2)c1 [BIX 02189]
- cell viability, IGR37 Parental, 1μΜ ([1]; 1μΜ, in %): 100.1
- cell viability, A375 GP, 1μΜ ([2]; 1μΜ, in %): 99.5
- cell viability, A375 GP, 10μΜ ([2]; 10μΜ, in %): 79.8
- cell viability, A375 Parental, 10μΜ ([3]; 10μΜ, in %): 86.5
- cell viability, 501Mel Parental, 1μΜ ([4]; 1μΜ, in %): 89.4
- cell viability, 501Mel Parental, 10μΜ ([4]; 10μΜ, in %): 89.0
- cell viability, 501Mel GP, 10μΜ ([5]; 10μΜ, in %): 90.2
- cell viability, 501Mel XP, 1μΜ ([6]; 1μΜ, in %): 98.8
- cell viability, 501Mel XP, 10μΜ ([6]; 10μΜ, in %): 82.6
- cell viability, A375 XP, 1μΜ ([7]; 1μΜ, in %): 99.2
- cell viability, A375 XP, 10μΜ ([7]; 10μΜ, in %): 88.6
- cell viability, IGR37 GP, 10μΜ ([8]; 10μΜ): 85.5%
- cell viability, IGR37 GP, 1μΜ ([8]; 1μΜ, in %): 92.6
- cell viability, IGR37 XP, 10μΜ ([9]; 10μΜ): 54.9%
- cell viability, IGR37 XP, 1μΜ ([9]; 1μΜ, in %): 96.6

SMILES: Nc1cc(C(F)(F)F)c(-c2cc(N3CCOCC3)nc(N3CCOCC3)n2)cn1 [BKM120 (Buparlisib)]
- Cell viability in kinase inhibitor library screening, IGR37 Parental, 1μΜ ([1]; 1μΜ, in %): 91.7
- Cell viability in kinase inhibitor library screening, IGR37 Parental, 10μΜ ([1]; 10μΜ, in %): 30.3
- Cell viability in kinase inhibitor library screening, A375 GP, 1μΜ ([2]; 1μΜ): 59.6
- Cell viability in kinase inhibitor library screening, A375 GP, 10μΜ ([2]; 10μΜ): 7.7
- Cell viability in kinase inhibitor library screening, A375 Parental, 10μΜ ([3]; 10μΜ): 9.8
- Cell viability in kinase inhibitor library screening, A375 Parental, 1μΜ ([3]; 1μΜ): 67.0
- Cell viability in kinase inhibitor library screening, 501Mel Parental, 1μΜ ([4]; 1μΜ, in %): 71.1
- Cell viability in kinase inhibitor library screening, 501Mel Parental, 10μΜ ([4]; 10μΜ, in %): 10.8
- Cell viability in kinase inhibitor library screening, 501Mel GP, 1μΜ ([5]; 1μΜ, in %): 60.8
- Cell viability in kinase inhibitor library screening, 501Mel GP, 10μΜ ([5]; 10μΜ, in %): 9.6
- Cell viability in kinase inhibitor library screening, 501Mel XP, 1μΜ ([6]; 1μΜ, in %): 54.8
- Cell viability in kinase inhibitor library screening, 501Mel XP, 10μΜ ([6]; 10μΜ, in %): 3.6
- Cell viability in kinase inhibitor library screening, A375 XP, 1μΜ ([7]; 1μΜ): 70.4
- Cell viability in kinase inhibitor library screening, A375 XP, 10μΜ ([7]; 10μΜ): 10.0
- Cell viability in kinase inhibitor library screening, IGR37 GP, 10μΜ ([8]; 10μΜ): 20.9%
- Cell viability in kinase inhibitor library screening, IGR37 GP, 1μΜ ([8]; 1μΜ, in %): 82.3
- Cell viability in kinase inhibitor library screening, IGR37 XP, 10μΜ ([9]; 10μΜ): 7.4%
- Cell viability in kinase inhibitor library screening, IGR37 XP, 1μΜ ([9]; 1μΜ, in %): 78.7

SMILES: CCOc1ccn(-c2ccc(F)cc2)c(=O)c1C(=O)Nc1ccc(Oc2ccnc(N)c2Cl)c(F)c1 [BMS 777607]
- cell viability (kinase inhibitor library screening) ([1]; 1μΜ): 97.6%
- cell viability (kinase inhibitor library screening) ([1]; 10μΜ): 81.6%
- cell viability (kinase inhibitor library screening) ([2]; 10μΜ): 45.4%
- cell viability (kinase inhibitor library screening) ([3]; 10μΜ): 42.4%
- cell viability (kinase inhibitor library screening) ([3]; 1μΜ): 99.9%
- cell viability (kinase inhibitor library screening) ([4]; 1μΜ): 88.2%
- cell viability (kinase inhibitor library screening) ([4]; 10μΜ): 68.4%
- cell viability (kinase inhibitor library screening) ([5]; 10μΜ): 53.2%
- cell viability (kinase inhibitor library screening) ([6]; 1μΜ): 72.2%
- cell viability (kinase inhibitor library screening) ([6]; 10μΜ): 37.4%
- cell viability (kinase inhibitor library screening) ([7]; 10μΜ): 66.5%
- cell viability (kinase inhibitor library screening) ([8]; 1μΜ): 87.2%
- cell viability (kinase inhibitor library screening) ([8]; 10μΜ): 82.2%
- cell viability (kinase inhibitor library screening) ([9]; 1μΜ): 91.2%
- cell viability (kinase inhibitor library screening) ([9]; 10μΜ): 46.6%

SMILES: Nc1nccc(Oc2ccc(NC(=O)c3c[nH]cc(-c4ccc(F)cc4)c3=O)cc2F)c1Cl [BMS 794833]
- cell viability (kinase inhibitor library screening) ([1]; 1μΜ): 106.3%
- cell viability (kinase inhibitor library screening) ([1]; 10μΜ): 97.3%
- cell viability (kinase inhibitor library screening) ([2]; 10μΜ): 85.8%
- cell viability (kinase inhibitor library screening) ([3]; 10μΜ): 63.8%
- cell viability (kinase inhibitor library screening) ([4]; 1μΜ): 95.9%
- cell viability (kinase inhibitor library screening) ([4]; 10μΜ): 83.2%
- cell viability (kinase inhibitor library screening) ([5]; 1μΜ): 90.0%
- cell viability (kinase inhibitor library screening) ([5]; 10μΜ): 70.5%
- cell viability (kinase inhibitor library screening) ([6]; 1μΜ): 91.8%
- cell viability (kinase inhibitor library screening) ([6]; 10μΜ): 52.9%
- cell viability (kinase inhibitor library screening) ([7]; 1μΜ): 104.8%
- cell viability (kinase inhibitor library screening) ([7]; 10μΜ): 96.9%
- cell viability (kinase inhibitor library screening) ([8]; 1μΜ): 94.1%
- cell viability (kinase inhibitor library screening) ([8]; 10μΜ): 90.1%
- cell viability (kinase inhibitor library screening) ([9]; 1μΜ): 103.7%
- cell viability (kinase inhibitor library screening) ([9]; 10μΜ): 63.5%
